{"source": "ChEMBL document CHEMBL4261602", "about": "“Tri-armed ligands of G-quadruplex on heteroarene-fused anthraquinone scaffolds: Design, synthesis and pre-screening of biological properties” (Eur J Med Chem, 2018)", "key": {"Quadruplex DNA [1]": {"tested_on": "Quadruplex DNA", "assay": "Stabilization of human FAM-5'-d(AGGGTTAGGGTTAGGGTTAGGG)-3'-BHQ1 telomeric G4 quadruplex DNA assessed as change in melting temperature at 1 uM in presence of 50 fold excess of competitor ds26 oligonucleotide DNA by FRET assay", "format": "nucleic-acid assay"}, "[2]": {"assay": "Drug uptake in human K562 cells at 1 uM within 15 mins by flow cytometry analysis", "format": "ADME, cell-based", "conditions": "k562, 0.25 h; call rule not given here"}, "[3]": {"assay": "Stabilization of d(CAATCGGATCGAATTCGATCCGATTG) DNA (unknown origin) assessed as binding constant at 1 uM by FRET assay"}, "Quadruplex DNA [4]": {"tested_on": "Quadruplex DNA", "assay": "Stabilization of human FAM-5'-d(AGGGTTAGGGTTAGGGTTAGGG)-3'-BHQ1 telomeric G4 quadruplex DNA assessed as change in melting temperature at 1 uM by FRET assay", "format": "nucleic-acid assay"}, "HeLa": {"tested_on": "HeLa", "assay": "Antiproliferative activity in human HeLa cells after 72 hrs by MTT assay", "format": "functional, cell-based"}, "[5]": {"assay": "Selectivity ratio of Kb for human FAM-5'-d(AGGGTTAGGGTTAGGGTTAGGG)-3'-BHQ1 telomeric G4 quadruplex DNA to Kb for d(CAATCGGATCGAATTCGATCCGATTG) DNA (unknown origin)"}, "Quadruplex DNA [6]": {"tested_on": "Quadruplex DNA", "assay": "Stabilization of human FAM-5'-d(AGGGTTAGGGTTAGGGTTAGGG)-3'-BHQ1 telomeric G4 quadruplex DNA assessed as binding constant at 1 uM by FRET assay", "format": "nucleic-acid assay"}, "L1210": {"tested_on": "L1210", "assay": "Antiproliferative activity in mouse L1210 cells after 48 hrs by MTT assay", "format": "functional, cell-based", "conditions": "L1210, 48 h"}, "CCRF-CEM": {"tested_on": "CCRF-CEM", "assay": "Antiproliferative activity in human CEM cells after 72 hrs by MTT assay", "format": "functional, cell-based"}}, "data": [{"smiles": "N=C(N)NCCNc1c2c(c(NCCNC(=N)N)c3sccc13)C(=O)c1ccccc1C2=O", "values": [{"measurement": "ΔTm", "setting": "Quadruplex DNA [1]", "value": 1, "unit": "°C"}, {"measurement": "Drug uptake", "setting": "[2]", "value": "Active"}, {"measurement": "Kb", "setting": "[3]", "value": 0.1, "unit": "×10⁶ /M"}, {"measurement": "ΔTm", "setting": "Quadruplex DNA [4]", "value": 11, "unit": "°C"}, {"measurement": "IC50", "setting": "HeLa", "value": 13, "unit": "µM"}, {"measurement": "Selectivity ratio", "setting": "[5]", "value": 60}, {"measurement": "Kb", "setting": "Quadruplex DNA [6]", "value": 6, "unit": "×10⁶ /M"}]}, {"smiles": "N=C(N)NCCNC(=O)c1cc2c(NCCNC(=N)N)c3c(c(NCCNC(=N)N)c2s1)C(=O)c1ccccc1C3=O", "values": [{"measurement": "ΔTm", "setting": "Quadruplex DNA [1]", "value": 10, "unit": "°C"}, {"measurement": "Kb", "setting": "[3]", "value": 0.1, "unit": "×10⁶ /M"}, {"measurement": "ΔTm", "setting": "Quadruplex DNA [4]", "value": 20, "unit": "°C"}, {"measurement": "IC50", "setting": "HeLa", "value": 18, "unit": "µM"}, {"measurement": "Selectivity ratio", "setting": "[5]", "value": 300}, {"measurement": "IC50", "setting": "L1210", "value": 12, "unit": "µM"}, {"measurement": "Kb", "setting": "Quadruplex DNA [6]", "value": 33, "unit": "×10⁶ /M"}, {"measurement": "IC50", "setting": "CCRF-CEM", "value": 16, "unit": "µM"}]}, {"smiles": "N=C(N)NCCCNC(=O)c1cc2c(NCCCCCN)c3c(c(NCCCCCN)c2s1)C(=O)c1ccccc1C3=O", "values": [{"measurement": "ΔTm", "setting": "Quadruplex DNA [1]", "value": 18, "unit": "°C"}, {"measurement": "Drug uptake", "setting": "[2]", "value": "Active"}, {"measurement": "Kb", "setting": "[3]", "value": 0.01, "unit": "×10⁶ /M"}, {"measurement": "ΔTm", "setting": "Quadruplex DNA [4]", "value": 21, "unit": "°C"}, {"measurement": "IC50", "setting": "HeLa", "value": 12, "unit": "µM"}, {"measurement": "Selectivity ratio", "setting": "[5]", "value": 2800}, {"measurement": "IC50", "setting": "L1210", "value": 19, "unit": "µM"}, {"measurement": "Kb", "setting": "Quadruplex DNA [6]", "value": 38, "unit": "×10⁶ /M"}, {"measurement": "IC50", "setting": "CCRF-CEM", "value": 21, "unit": "µM"}]}, {"smiles": "N=C(N)NCCNC(=O)c1cc2c(NCCNC(=N)N)c3c(c(NCCNC(=N)N)c2o1)C(=O)c1ccccc1C3=O", "values": [{"measurement": "ΔTm", "setting": "Quadruplex DNA [1]", "value": 20.3, "unit": "°C"}, {"measurement": "Kb", "setting": "[3]", "value": 0.02, "unit": "×10⁶ /M"}, {"measurement": "ΔTm", "setting": "Quadruplex DNA [4]", "value": 21.3, "unit": "°C"}, {"measurement": "IC50", "setting": "HeLa", "value": 14, "unit": "µM"}, {"measurement": "Selectivity ratio", "setting": "[5]", "value": 2300}, {"measurement": "IC50", "setting": "L1210", "value": 9, "unit": "µM"}, {"measurement": "Kb", "setting": "Quadruplex DNA [6]", "value": 46, "unit": "×10⁶ /M"}, {"measurement": "IC50", "setting": "CCRF-CEM", "value": 12, "unit": "µM"}]}, {"smiles": "N=C(N)NCCCNC(=O)c1cc2c(NCCCNC(=N)N)c3c(c(NCCCNC(=N)N)c2s1)C(=O)c1ccccc1C3=O", "values": [{"measurement": "ΔTm", "setting": "Quadruplex DNA [1]", "value": 17, "unit": "°C"}, {"measurement": "Kb", "setting": "[3]", "value": 0.03, "unit": "×10⁶ /M"}, {"measurement": "ΔTm", "setting": "Quadruplex DNA [4]", "value": 22, "unit": "°C"}, {"measurement": "IC50", "setting": "HeLa", "value": 18, "unit": "µM"}, {"measurement": "Selectivity ratio", "setting": "[5]", "value": 1700}, {"measurement": "IC50", "setting": "L1210", "value": 10, "unit": "µM"}, {"measurement": "Kb", "setting": "Quadruplex DNA [6]", "value": 47, "unit": "×10⁶ /M"}, {"measurement": "IC50", "setting": "CCRF-CEM", "value": 11, "unit": "µM"}]}, {"smiles": "N=C(N)NCCNC(=O)c1cc2c(NCCCCCN)c3c(c(NCCCCCN)c2o1)C(=O)c1ccccc1C3=O", "values": [{"measurement": "ΔTm", "setting": "Quadruplex DNA [1]", "value": 13, "unit": "°C"}, {"measurement": "Kb", "setting": "[3]", "value": 0.03, "unit": "×10⁶ /M"}, {"measurement": "ΔTm", "setting": "Quadruplex DNA [4]", "value": 18, "unit": "°C"}, {"measurement": "IC50", "setting": "HeLa", "value": 11, "unit": "µM"}, {"measurement": "Selectivity ratio", "setting": "[5]", "value": 850}, {"measurement": "IC50", "setting": "L1210", "value": 19, "unit": "µM"}, {"measurement": "Kb", "setting": "Quadruplex DNA [6]", "value": 22, "unit": "×10⁶ /M"}, {"measurement": "IC50", "setting": "CCRF-CEM", "value": 18, "unit": "µM"}]}, {"smiles": "N=C(N)NCCCNc1c2c(c(NCCCNC(=N)N)c3sc(C(=O)NCCNC(=N)N)cc13)C(=O)c1ccccc1C2=O", "values": [{"measurement": "ΔTm", "setting": "Quadruplex DNA [1]", "value": 21, "unit": "°C"}, {"measurement": "ΔTm", "setting": "Quadruplex DNA [4]", "value": 21, "unit": "°C"}, {"measurement": "IC50", "setting": "HeLa", "value": 17, "unit": "µM"}, {"measurement": "IC50", "setting": "L1210", "value": 9, "unit": "µM"}, {"measurement": "Kb", "setting": "Quadruplex DNA [6]", "value": 44, "unit": "×10⁶ /M"}, {"measurement": "IC50", "setting": "CCRF-CEM", "value": 12, "unit": "µM"}]}, {"smiles": "N=C(N)NCCCNC(=O)c1cc2c(NCCCNC(=N)N)c3c(c(NCCCNC(=N)N)c2o1)C(=O)c1ccccc1C3=O", "values": [{"measurement": "ΔTm", "setting": "Quadruplex DNA [1]", "value": 24, "unit": "°C"}, {"measurement": "Kb", "setting": "[3]", "value": 0.02, "unit": "×10⁶ /M"}, {"measurement": "ΔTm", "setting": "Quadruplex DNA [4]", "value": 25, "unit": "°C"}, {"measurement": "IC50", "setting": "HeLa", "value": 17, "unit": "µM"}, {"measurement": "Selectivity ratio", "setting": "[5]", "value": 4550}, {"measurement": "IC50", "setting": "L1210", "value": 18, "unit": "µM"}, {"measurement": "Kb", "setting": "Quadruplex DNA [6]", "value": 91, "unit": "×10⁶ /M"}, {"measurement": "IC50", "setting": "CCRF-CEM", "value": 17, "unit": "µM"}]}, {"smiles": "N=C(N)NCCCNC(=O)c1cc2c(NCCCCCN)c3c(c(NCCCCCN)c2o1)C(=O)c1ccccc1C3=O", "values": [{"measurement": "ΔTm", "setting": "Quadruplex DNA [1]", "value": 15, "unit": "°C"}, {"measurement": "Kb", "setting": "[3]", "value": 0.01, "unit": "×10⁶ /M"}, {"measurement": "ΔTm", "setting": "Quadruplex DNA [4]", "value": 18, "unit": "°C"}, {"measurement": "IC50", "setting": "HeLa", "value": 14, "unit": "µM"}, {"measurement": "Selectivity ratio", "setting": "[5]", "value": 1500}, {"measurement": "IC50", "setting": "L1210", "value": 17, "unit": "µM"}, {"measurement": "Kb", "setting": "Quadruplex DNA [6]", "value": 22, "unit": "×10⁶ /M"}, {"measurement": "IC50", "setting": "CCRF-CEM", "value": 15, "unit": "µM"}]}, {"smiles": "N=C(N)NCCCNC(=O)c1cc2c(NCCNC(=N)N)c3c(c(NCCNC(=N)N)c2s1)C(=O)c1ccccc1C3=O", "values": [{"measurement": "ΔTm", "setting": "Quadruplex DNA [1]", "value": 19, "unit": "°C"}, {"measurement": "Drug uptake", "setting": "[2]", "value": "Active"}, {"measurement": "Kb", "setting": "[3]", "value": 0.03, "unit": "×10⁶ /M"}, {"measurement": "ΔTm", "setting": "Quadruplex DNA [4]", "value": 20.5, "unit": "°C"}, {"measurement": "IC50", "setting": "HeLa", "value": 15, "unit": "µM"}, {"measurement": "Selectivity ratio", "setting": "[5]", "value": 1300}, {"measurement": "IC50", "setting": "L1210", "value": 13, "unit": "µM"}, {"measurement": "Kb", "setting": "Quadruplex DNA [6]", "value": 40, "unit": "×10⁶ /M"}, {"measurement": "IC50", "setting": "CCRF-CEM", "value": 13, "unit": "µM"}]}, {"smiles": "N=C(N)NCCCNC(=O)c1cc2c(NCCCCN)c3c(c(NCCCCN)c2s1)C(=O)c1ccccc1C3=O", "values": [{"measurement": "ΔTm", "setting": "Quadruplex DNA [1]", "value": 18, "unit": "°C"}, {"measurement": "Kb", "setting": "[3]", "value": 0.02, "unit": "×10⁶ /M"}, {"measurement": "ΔTm", "setting": "Quadruplex DNA [4]", "value": 22, "unit": "°C"}, {"measurement": "IC50", "setting": "HeLa", "value": 11, "unit": "µM"}, {"measurement": "Selectivity ratio", "setting": "[5]", "value": 2500}, {"measurement": "IC50", "setting": "L1210", "value": 12, "unit": "µM"}, {"measurement": "Kb", "setting": "Quadruplex DNA [6]", "value": 45, "unit": "×10⁶ /M"}, {"measurement": "IC50", "setting": "CCRF-CEM", "value": 16, "unit": "µM"}]}, {"smiles": "N=C(N)NCCCNC(=O)c1cc2c(NCCOCCN)c3c(c(NCCOCCN)c2s1)C(=O)c1ccccc1C3=O", "values": [{"measurement": "ΔTm", "setting": "Quadruplex DNA [1]", "value": 14, "unit": "°C"}, {"measurement": "Kb", "setting": "[3]", "value": 0.03, "unit": "×10⁶ /M"}, {"measurement": "ΔTm", "setting": "Quadruplex DNA [4]", "value": 20, "unit": "°C"}, {"measurement": "IC50", "setting": "HeLa", "value": 9, "unit": "µM"}, {"measurement": "Selectivity ratio", "setting": "[5]", "value": 950}, {"measurement": "IC50", "setting": "L1210", "value": 10, "unit": "µM"}, {"measurement": "Kb", "setting": "Quadruplex DNA [6]", "value": 29, "unit": "×10⁶ /M"}, {"measurement": "IC50", "setting": "CCRF-CEM", "value": 11, "unit": "µM"}]}]}
